Where “and” joins values, the source holds several entries; their conditions need not be identical. Equal values may be shown once.
Columns and labels:
β-amyloid peptide [1] = experiment: β-Amyloid Peptide Production Inhibition (Cellular Assay), ELISA of conditioned media; assay type: cell-based; conditions: normalized for cytotoxicity (MTT)
Method: (§1) Two cell lines (human kidney cell line 293 and Chinese hamster ovary cell line CHO) were stably transfected with the gene for APP751 containing the double mutation Lys₆₅₁-Met₆₅₂ to Asn₆₅₁-Leu₆₅₂ (APP-751 numbering) commonly called the Swedish mutation using the method described in Citron, et al., Nature (London), 360:672-674 (1992). The transfected cell lines were designated as 293 751 SWE and CHO 751 SWE, and were plated in Corning 96 well plates at 2.5 x 10⁴ or 1 x 10⁴ cells per well respectively in Dulbecco's […] essential media (DMEM) plus 10% fetal bovine serum. Following overnight incubation at 37°C in an incubator equilibrated with 10% carbon dioxide (CO₂) and humidified air, the media were removed and replaced with 200 µl per well of media containing a macrolide. After a two hour pretreatment period, the media were again removed and replaced with fresh media containing the test compound and the cells were incubated for an additional two hours.
After treatment, plates were centrifuged at 1200 x g for five minutes at room temperature to pellet cellular debris from the conditioned media. From each well, 100 µl of conditioned media were transferred into an ELISA plate precoated with antibody 266 against βamyloid peptide(13-28) (Seubert et al., supra.) and stored at 4°C overnight. An ELISA assay employing labelled antibody 6C6 (against β-amyloid peptide-1-16) was run the next day to measure the amount of β-amyloid peptide produced.
The results of the β-amyloid peptide ELISA were fit to a standard curve and expressed as ng/ml β-amyloid peptide. In order to normalize for cytotoxicity, these β-amyloid peptide results were divided by the MTT results and expressed as a percentage of the results from a drug-free control.

[2] = tested on: 293 751 SWE and CHO 751 SWE; experiment: Cytotoxic effects / cellular viability by MTT in the cellular assay; assay type: cell-based
Method: as §1
Cytotoxic effects of the compounds were measured by a modification of the method of Hansen, et al., Journal of Immununological Methods, 119:203-210 (1989). […] The difference in the OD562nm and the OD650nm was measured in a UVmax microplate reader as an indicator of the cellular viability.

[3] = tested on: human fetal primary cortical cultures; experiment: Cytotoxicity in human fetal primary cortical cultures; assay type: cell-based; conditions: 1 µM
β-amyloid peptide [4] = experiment: β-amyloid peptide production in human fetal primary cortical cultures (ELISA); assay type: cell-based; conditions: 1 µM; twenty four hour-conditioned medium; endogenous amyloid precursor protein
Method: In order to better understand this phenomenon, human fetal primary cortical cultures, which secrete β-amyloid peptide as a result of endogenous amyloid precursor protein processing, were treated with 1 µM bafilomycin. Twenty four hour-conditioned medium was collected and evaluated using enzyme-linked immunosorbent assay (ELISA).

vacuolar ATPases = conditions: relative to other bafilomycins; cited from earlier work
[5] = 1 µg/ml, read-out: Percent Inhibition

CO/C1=C\C(C)=C\C(C)C(O)C(C)C/C(C)=C/C=C/C(OC)C(C(C)C(O)C(C)C2(O)CC(O)C(C)C(C(C)C)O2)OC1=O (stereo not shown) [Bafilomycin A₁, bafilomycin A₁]
Percent Inhibition (β-amyloid peptide [1]; 0.3 µM): 91 ± 1% and 92 ± 1%
inhibition at 0.3 µM (β-amyloid peptide [1]; 0.3 µM, read-out: Percent Inhibition): 90 ± 2%

CO/C1=C\C(C)=C\C(C)C(O)C(C)C/C(C)=C/C=C/C(OC)C(C(C)C(O)C(C)C2(O)CC(OC(=O)/C=C/C(=O)O)C(C)C(C(C)C)O2)OC1=O (stereo not shown) [Bafilomycin C₁]
inhibition at 1 µg/mL (β-amyloid peptide [1]; [5]): 90 ± 2%

CO/C1=C\C(C)=C\C(C)C(O)C(C)C/C(C)=C/C=C/C(OC)C(C(C)C(O)C(C)C(=O)/C=C/C(C)C(O)C(C)C)OC1=O (stereo not shown) [Bafilomycin D, bafilomycin D]
inhibition at 1 µg/mL (β-amyloid peptide [1]; [5]): 4 ± 3%

C/C=C/[C@H]1O[C@@](O)([C@@H](C)[C@H](O)[C@H](C)[C@H]2OC(=O)/C(OC)=C/C(C)=C/[C@@H](C)[C@@H](O)[C@@H](CC)[C@@H](O)[C@H](C)C/C(C)=C/C=C/[C@@H]2OC)C[C@@H](O[C@H]2C[C@@H](O)[C@H](OC(N)=O)[C@@H](C)O2)[C@@H]1C [Concanamycin A, concanamycin A]
Percent Inhibition (β-amyloid peptide [1]; 1.2 µM): 74 ± 4%
Percent Viability ([2]; 1.2 µM): 97%

CO/C1=C\C(C)=C\[C@@H](C)[C@@H](O)[C@@H](C)C/C(C)=C/C=C/[C@H](OC)[C@@H]([C@@H](C)[C@@H](O)[C@H](C)[C@@]2(O)C[C@@H](O)[C@H](C)[C@@H](C(C)C)O2)OC1=O [bafilomycin]
cytotoxicity [3]: no cytotoxicity was observed
inhibition of β-amyloid peptide production (β-amyloid peptide [4]): Greater than 75%

Bafilomycin B₁
Percent Inhibition (β-amyloid peptide [1]; 1 µg/ml): 87 ± 1%

bafilomycin A₁
Percent Viability ([2]; 0.3 µM): 112% and 99% and 102%

bafilomycin D
poorer inhibitor of vacuolar ATPases than other bafilomycins, especially bafilomycin A1 (vacuolar ATPases): ~40 fold

elaiophyline
Percent Inhibition (β-amyloid peptide [1]; 0.6 µM): 98 ± 2%
Percent Inhibition (β-amyloid peptide [1]; 1.2 µM): 100 ± 1%
Percent Inhibition (β-amyloid peptide [1]; 2.4 µM): 100 ± 2%
Percent Inhibition (β-amyloid peptide [1]; 4.9 µM): 100 ± 1%
Percent Inhibition (β-amyloid peptide [1]; 9.8 µM): 100 ± 1% and 131 ± 1%
